Experimental data from the supplement of paper PMC13380429.

Key:
Settings in all cases: 72 h
HepG2 [1] = assay: drug sensitivity score (DSS) for viability; higher = more toxic; extreme values may be limits of the assay
Caco-2 [2] = assay: as above
U2OS [3] = assay: as above
Vero E6 [4] = assay: as above
HepG2 [5] = assay: cell viability relative to DMSO; higher = less toxic
Caco-2 [6] = assay: as above
U2OS [7] = assay: as above
Vero E6 [8] = assay: as above
HepG2 [9] = assay: relative viability EC50 (midpoint between 100% and the lowest measured viability); higher = less toxic
Caco-2 [10] = assay: as above
U2OS [11] = assay: as above
Vero E6 [12] = assay: as above
Calu-3 [13] = assay: drug sensitivity score (DSS) for viability; higher = more toxic; extreme values may be limits of the assay
Calu-3 [14] = assay: cell viability relative to DMSO; higher = less toxic

Row | SMILES | drug sensitivity score (HepG2 [1]) | drug sensitivity score (Caco-2 [2]) | drug sensitivity score (U2OS [3]) | drug sensitivity score (Vero E6 [4]) | cell viability (HepG2 [5]; 1 nM) [%] | cell viability (HepG2 [5]; 10 nM) [%] | cell viability (HepG2 [5]; 100 nM) [%] | cell viability (HepG2 [5]; 1000 nM) [%] | cell viability (HepG2 [5]; 10000 nM) [%] | cell viability (Caco-2 [6]; 1 nM) [%] | cell viability (Caco-2 [6]; 10 nM) [%] | cell viability (Caco-2 [6]; 100 nM) [%] | cell viability (Caco-2 [6]; 1000 nM) [%] | cell viability (Caco-2 [6]; 10000 nM) [%] | cell viability (U2OS [7]; 1 nM) [%] | cell viability (U2OS [7]; 10 nM) [%] | cell viability (U2OS [7]; 100 nM) [%] | cell viability (U2OS [7]; 1000 nM) [%] | cell viability (U2OS [7]; 10000 nM) [%] | cell viability (Vero E6 [8]; 1 nM) [%] | cell viability (Vero E6 [8]; 10 nM) [%] | cell viability (Vero E6 [8]; 100 nM) [%] | cell viability (Vero E6 [8]; 1000 nM) [%] | cell viability (Vero E6 [8]; 10000 nM) [%] | relative viability EC50 (HepG2 [9]) [µM] | relative viability EC50 (Caco-2 [10]) [µM] | relative viability EC50 (U2OS [11]) [µM] | relative viability EC50 (Vero E6 [12]) [µM] | drug sensitivity score (Calu-3 [13]) | cell viability (Calu-3 [14]; 1 nM) [%] | cell viability (Calu-3 [14]; 10 nM) [%] | cell viability (Calu-3 [14]; 100 nM) [%] | cell viability (Calu-3 [14]; 1000 nM) [%] | cell viability (Calu-3 [14]; 10000 nM) [%]
1 | Cc1ccc(S(=O)(=O)NC(=O)NN2CC3CCCC3C2)cc1 (stereo unspecified) [gliclazide] | 0 | 0 | 0 | 0 | 99.1 | 96.1 | 105 | 118 | 108 | 87 | 110 | 100 | 102 | 89 | 92 | 99.3 | 102 | 93.3 | 101 | 106 | 97 | 101 | 99.2 | 102 | > 10 | > 10 | > 10 | > 10 | – | – | – | – | – | –
2 | Cc1cccc(-c2[nH]c(C(C)(C)C)nc2-c2ccc3c(c2)OCO3)n1 | 9.1 | 8.2 | 2.1 | 0.9 | 94.6 | 102 | 101 | 75.2 | 4.5 | 95.4 | 94.3 | 98.3 | 77.1 | 15 | 98.8 | 98.6 | 90.6 | 95.4 | 69.2 | 104 | 101 | 107 | 96.2 | 81.7 | 1.52 | 1.49 | – | > 10 | 1.1 | 102 | 95.2 | 107 | 103 | 70.3
3 | Oc1cccc(Nc2ncc(F)c(Nc3cccc(O)c3)n2)c1 [R112] | 4.4 | 2.7 | 4 | 3 | 106 | 102 | 107 | 96.1 | 30.9 | 103 | 107 | 99.1 | 94.7 | 62.1 | 97.6 | 101 | 95.6 | 98.5 | 30.2 | 103 | 102 | 99.9 | 99 | 46.6 | 2.72 | – | 3.01 | 3.03 | 1.4 | 92.2 | 100 | 92.6 | 92.6 | 74.8
4 | CCNC(=O)[C@@H]1CCCN1C(=O)[C@H](CCCNC(=N)N)NC(=O)[C@H](CC(C)C)NC(=O)[C@@H](C)NC(=O)[C@H](Cc1ccc(O)cc1)NC(=O)[C@H](CO)NC(=O)[C@H](Cc1c[nH]c2ccccc12)NC(=O)[C@H](Cc1cnc[nH]1)NC(=O)[C@@H]1CCC(=O)N1 [alarelin] | 0 | 0 | – | 0 | 97.8 | 103 | 101 | 92 | 93.7 | 116 | 100 | 86.3 | 118 | 102 | – | – | – | – | – | 109 | 106 | 104 | 96.9 | 102 | > 10 | > 10 | – | > 10 | – | – | – | – | – | –
5 | Cc1cccn2c(=O)c(-c3nnn[nH]3)cnc12 [pemirolast] | 0 | 0 | 0 | 0 | 102 | 98.2 | 101 | 96.2 | 92.7 | 95.1 | 98.6 | 92.6 | 96.1 | 97.6 | 98.4 | 95.1 | 95.4 | 91.5 | 95.6 | 89.7 | 88.7 | 88.5 | 96.4 | 93.8 | > 10 | > 10 | > 10 | > 10 | – | – | – | – | – | –
6 | Cc1nc2ccccc2n1Cc1ccc(Cl)cc1 [chlormidazole] | 5.4 | 2.4 | 0 | 0.1 | 92.3 | 95.4 | 109 | 92.1 | 25.1 | 103 | 101 | 109 | 83.1 | 77.8 | 99.2 | 95.9 | 98.8 | 96.9 | 95.8 | 96.7 | 107 | 104 | 107 | 85.9 | 2.3 | > 10 | > 10 | > 10 | – | – | – | – | – | –
7 | c1ccc(NCc2ccc(CNc3ccccn3)cc2)nc1 [WZ811] | 0 | 0 | 0 | 0 | 98.6 | 101 | 98.7 | 106 | 111 | 97.9 | 105 | 103 | 95.5 | 100 | 96.8 | 96.1 | 99.8 | 96.7 | 97.9 | 93.5 | 95.5 | 94.2 | 101 | 103 | > 10 | > 10 | > 10 | > 10 | – | – | – | – | – | –
8 | Clc1ccc2nsnc2c1NC1=NCCN1 [tizanidine] | 0 | – | 0 | 0 | – | – | – | – | – | – | – | – | – | – | – | – | – | – | – | – | – | – | – | – | – | – | – | – | 0 | – | – | – | – | –
9 | COc1cccc(-c2ccc(NC(=O)C3=C(C(=O)O)CCC3)c(F)c2)c1 | 0 | 0.9 | 0 | 0 | 103 | 89.4 | 98.8 | 97.5 | 92.6 | 96.4 | 93.1 | 103 | 98.6 | 78.8 | 99 | 105 | 96.8 | 104 | 96.2 | 90.1 | 92.2 | 98 | 95.8 | 90.8 | > 10 | > 10 | > 10 | > 10 | – | – | – | – | – | –
10 | CCNC(=O)CC[C@H](N)C(=O)O [L-theanine] | 0 | 0 | 0 | 0 | 95.8 | 89.8 | 95.5 | 89.8 | 99.4 | 98.2 | 95 | 98.7 | 93.1 | 105 | 99.8 | 103 | 95.8 | 101 | 102 | 95.8 | 99 | 105 | 104 | 88 | > 10 | > 10 | > 10 | > 10 | – | – | – | – | – | –
11 | C=C1/C(=C\C=C2/CCC[C@]3(C)[C@@H]([C@H](C)CC[C@@H](O)C(C)C)CC[C@@H]23)C[C@@H](O)C[C@@H]1O [tacalcitol] | 0 | – | 0.3 | 1.9 | – | – | – | – | – | – | – | – | – | – | – | – | – | – | – | – | – | – | – | – | – | – | – | – | 0 | – | – | – | – | –
12 | Cc1cc(C(=O)O)sc1C(N)C(=O)O (stereo unspecified) [3-MATIDA] | 0 | 0 | 0 | 0 | 96.4 | 94.8 | 83.2 | 96.3 | 91.8 | 96.9 | 105 | 97.3 | 99.4 | 96.9 | 103 | 110 | 96.8 | 102 | 97.5 | 92.6 | 99.2 | 95.2 | 93.5 | 98 | > 10 | > 10 | > 10 | > 10 | – | – | – | – | – | –
